Measurements: PMC11345841, “Exploring 2-Sulfonylpyrimidine Warheads as Acrylamide Surrogates for Targeted Covalent Inhibition: A BTK Story” (Journal of Medicinal Chemistry, 2024)
Like-named read-outs stand apart in the source and are kept apart here.

Columns and labels:
Assay in all cases: KINOMEscan ScanTK
Format in all cases: binding
[1] = target: T1, JAK2(JH1domain-catalytic) (Homo sapiens, UniProt O60674)
T1 construct: JAK2(JH1domain-catalytic); purchased Eurofins DiscoverX KINOMEscan (scanTK)
T1 sequence (O60674 849-1132 limits assumed): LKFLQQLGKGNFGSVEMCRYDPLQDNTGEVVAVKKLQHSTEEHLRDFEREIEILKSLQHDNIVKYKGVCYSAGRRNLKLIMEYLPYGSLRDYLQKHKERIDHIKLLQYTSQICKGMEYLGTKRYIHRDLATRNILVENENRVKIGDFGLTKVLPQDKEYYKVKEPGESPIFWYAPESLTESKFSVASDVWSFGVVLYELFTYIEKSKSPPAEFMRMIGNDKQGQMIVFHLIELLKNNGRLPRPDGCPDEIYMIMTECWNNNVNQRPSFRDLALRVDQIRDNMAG

[2] = target: T2, KIT-autoinhibited (Homo sapiens, UniProt P10721)
T2 construct: purchased Eurofins DiscoverX KINOMEscan (scanTK)
T2 sequence (P10721 26-976): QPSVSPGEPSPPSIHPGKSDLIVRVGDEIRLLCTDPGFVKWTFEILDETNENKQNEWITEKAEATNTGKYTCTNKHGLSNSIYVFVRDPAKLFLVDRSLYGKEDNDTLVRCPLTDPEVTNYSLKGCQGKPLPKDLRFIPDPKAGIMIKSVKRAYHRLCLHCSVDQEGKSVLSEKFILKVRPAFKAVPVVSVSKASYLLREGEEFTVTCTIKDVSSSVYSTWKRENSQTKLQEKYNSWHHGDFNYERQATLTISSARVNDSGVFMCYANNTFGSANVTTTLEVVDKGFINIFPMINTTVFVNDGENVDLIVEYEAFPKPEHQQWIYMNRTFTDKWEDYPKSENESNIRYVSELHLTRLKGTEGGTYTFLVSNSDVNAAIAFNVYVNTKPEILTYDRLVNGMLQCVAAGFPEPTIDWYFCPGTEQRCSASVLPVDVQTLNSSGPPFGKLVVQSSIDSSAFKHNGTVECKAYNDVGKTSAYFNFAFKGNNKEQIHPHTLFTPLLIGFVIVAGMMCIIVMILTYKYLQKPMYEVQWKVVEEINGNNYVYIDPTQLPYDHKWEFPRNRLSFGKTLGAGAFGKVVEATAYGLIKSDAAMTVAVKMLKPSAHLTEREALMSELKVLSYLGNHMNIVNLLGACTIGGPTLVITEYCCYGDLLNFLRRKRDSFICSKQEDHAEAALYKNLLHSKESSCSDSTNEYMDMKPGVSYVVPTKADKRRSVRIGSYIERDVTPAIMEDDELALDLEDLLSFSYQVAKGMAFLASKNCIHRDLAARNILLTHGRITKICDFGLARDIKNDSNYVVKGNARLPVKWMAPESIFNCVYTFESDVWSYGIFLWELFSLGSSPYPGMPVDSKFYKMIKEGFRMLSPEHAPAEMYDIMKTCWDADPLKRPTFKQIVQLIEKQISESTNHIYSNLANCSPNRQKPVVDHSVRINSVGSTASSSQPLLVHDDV

[3] = target: T3, KIT(D816V) (Homo sapiens, UniProt P10721, D816V)
T3 construct: purchased Eurofins DiscoverX KINOMEscan (scanTK)
T3 sequence (P10721 26-976 D816V): as the sequence (P10721 26-976) above, with D791V counted along it

[4] = target: T4, ABL1(F317I)-phosphorylated (Homo sapiens, UniProt P00519, F317I)
T4 construct: purchased Eurofins DiscoverX KINOMEscan (scanTK)

[5] = target: T5, PDGFRB (Homo sapiens, UniProt P09619)
T5 construct: purchased Eurofins DiscoverX KINOMEscan (scanTK)

[6] = target: T6, FAK (Homo sapiens, UniProt Q05397)
T6 construct: purchased Eurofins DiscoverX KINOMEscan (scanTK)

[7] = target: T7, ITK (Homo sapiens, UniProt Q08881)
T7 construct: purchased Eurofins DiscoverX KINOMEscan (scanTK)
T7 sequence (Q08881 1-620): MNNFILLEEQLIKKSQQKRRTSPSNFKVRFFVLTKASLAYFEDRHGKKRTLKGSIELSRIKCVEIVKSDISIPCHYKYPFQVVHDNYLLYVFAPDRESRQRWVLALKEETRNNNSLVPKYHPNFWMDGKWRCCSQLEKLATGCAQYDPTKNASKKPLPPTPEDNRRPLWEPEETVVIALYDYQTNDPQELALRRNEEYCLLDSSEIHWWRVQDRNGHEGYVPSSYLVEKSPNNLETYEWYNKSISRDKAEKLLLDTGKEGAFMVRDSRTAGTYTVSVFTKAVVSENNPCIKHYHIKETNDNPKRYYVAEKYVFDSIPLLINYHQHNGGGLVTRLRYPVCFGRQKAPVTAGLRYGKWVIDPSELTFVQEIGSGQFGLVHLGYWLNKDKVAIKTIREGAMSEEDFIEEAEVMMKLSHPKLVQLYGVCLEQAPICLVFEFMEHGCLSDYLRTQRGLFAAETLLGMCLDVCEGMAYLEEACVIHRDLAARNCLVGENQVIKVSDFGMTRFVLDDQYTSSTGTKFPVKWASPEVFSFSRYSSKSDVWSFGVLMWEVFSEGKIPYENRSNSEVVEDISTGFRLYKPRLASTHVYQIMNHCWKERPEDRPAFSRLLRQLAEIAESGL

[8] = target: T8, SYK (Homo sapiens, UniProt P43405)
T8 construct: purchased Eurofins DiscoverX KINOMEscan (scanTK)

[9] = target: T9, EGFR(E746-A750del) (Homo sapiens, UniProt P00533, DEL746-750)
T9 construct: purchased Eurofins DiscoverX KINOMEscan (scanTK)
T9 sequence (P00533 with tags, fused parts or gaps DEL746-750 limits assumed): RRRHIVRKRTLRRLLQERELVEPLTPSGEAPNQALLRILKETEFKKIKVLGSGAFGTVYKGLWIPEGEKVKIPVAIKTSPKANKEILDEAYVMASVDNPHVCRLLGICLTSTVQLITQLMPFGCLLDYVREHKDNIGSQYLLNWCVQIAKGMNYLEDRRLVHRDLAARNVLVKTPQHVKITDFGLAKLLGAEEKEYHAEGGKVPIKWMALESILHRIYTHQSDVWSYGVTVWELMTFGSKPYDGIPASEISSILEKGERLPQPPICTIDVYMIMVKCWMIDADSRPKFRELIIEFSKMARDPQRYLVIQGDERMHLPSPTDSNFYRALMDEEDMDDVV

[10] = target: T10, ABL1(T315I)-nonphosphorylated (Homo sapiens, UniProt P00519, T315I)
T10 construct: purchased Eurofins DiscoverX KINOMEscan (scanTK)

[11] = target: T11, KIT(L576P) (Homo sapiens, UniProt P10721, L576P)
T11 construct: purchased Eurofins DiscoverX KINOMEscan (scanTK)
T11 sequence (P10721 26-976 L576P): as the sequence (P10721 26-976) above, with L551P counted along it

[12] = target: T12, SRMS (Homo sapiens, UniProt Q9H3Y6); conditions: SRMS
T12 construct: purchased Eurofins DiscoverX KINOMEscan (scanTK)

[13] = target: T13, EGFR (Homo sapiens, UniProt P00533)
T13 construct: purchased Eurofins DiscoverX KINOMEscan (scanTK)
T13 sequence (P00533 25-1210): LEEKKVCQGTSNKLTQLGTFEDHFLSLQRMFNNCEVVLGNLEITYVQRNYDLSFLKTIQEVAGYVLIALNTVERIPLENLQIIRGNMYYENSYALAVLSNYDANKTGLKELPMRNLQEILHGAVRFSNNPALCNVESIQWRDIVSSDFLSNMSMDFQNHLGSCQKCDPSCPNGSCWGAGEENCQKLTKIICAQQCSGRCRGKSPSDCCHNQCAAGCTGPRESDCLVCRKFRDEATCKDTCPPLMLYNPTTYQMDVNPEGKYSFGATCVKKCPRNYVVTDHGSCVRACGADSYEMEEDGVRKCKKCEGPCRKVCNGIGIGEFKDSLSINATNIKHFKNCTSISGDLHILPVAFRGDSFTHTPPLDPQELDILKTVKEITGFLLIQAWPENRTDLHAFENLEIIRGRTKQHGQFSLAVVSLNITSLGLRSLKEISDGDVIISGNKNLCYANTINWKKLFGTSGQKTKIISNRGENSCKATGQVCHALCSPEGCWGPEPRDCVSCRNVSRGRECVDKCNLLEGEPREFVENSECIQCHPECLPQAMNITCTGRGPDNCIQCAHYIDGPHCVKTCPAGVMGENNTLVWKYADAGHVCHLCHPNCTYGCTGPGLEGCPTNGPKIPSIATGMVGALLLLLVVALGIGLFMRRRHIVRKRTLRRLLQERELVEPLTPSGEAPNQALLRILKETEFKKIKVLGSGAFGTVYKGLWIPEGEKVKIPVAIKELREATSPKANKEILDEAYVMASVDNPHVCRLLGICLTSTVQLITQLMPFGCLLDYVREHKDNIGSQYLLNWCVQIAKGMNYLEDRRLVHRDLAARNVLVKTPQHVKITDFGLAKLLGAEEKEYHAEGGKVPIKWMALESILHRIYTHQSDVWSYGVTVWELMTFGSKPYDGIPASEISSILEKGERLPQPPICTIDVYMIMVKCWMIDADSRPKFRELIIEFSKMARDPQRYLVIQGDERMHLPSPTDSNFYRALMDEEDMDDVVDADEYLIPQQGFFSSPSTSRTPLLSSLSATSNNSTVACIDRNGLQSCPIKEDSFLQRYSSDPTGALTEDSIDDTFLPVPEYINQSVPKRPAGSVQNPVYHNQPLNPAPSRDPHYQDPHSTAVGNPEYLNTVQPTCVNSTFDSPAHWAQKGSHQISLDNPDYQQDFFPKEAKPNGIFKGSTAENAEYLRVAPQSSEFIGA

[14] = target: T14, JAK1(JH2domain-pseudokinase) (Homo sapiens, UniProt P23458)
T14 construct: JAK1(JH2domain-pseudokinase); purchased Eurofins DiscoverX KINOMEscan (scanTK)
T14 sequence (P23458 583-855 limits assumed): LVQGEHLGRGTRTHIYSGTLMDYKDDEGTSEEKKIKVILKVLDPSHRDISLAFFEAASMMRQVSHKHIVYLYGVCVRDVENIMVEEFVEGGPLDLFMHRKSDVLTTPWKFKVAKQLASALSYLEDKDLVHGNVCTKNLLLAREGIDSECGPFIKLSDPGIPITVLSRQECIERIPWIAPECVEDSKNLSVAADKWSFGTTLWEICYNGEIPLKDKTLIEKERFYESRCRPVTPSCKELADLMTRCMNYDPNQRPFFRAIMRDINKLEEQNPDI

[15] = target: T15, EGFR(L747-S752del, P753S) (Homo sapiens, UniProt P00533, DEL747-752/P753S)
T15 construct: purchased Eurofins DiscoverX KINOMEscan (scanTK)
T15 sequence (P00533 with tags, fused parts or gaps DEL747-752/P753S limits assumed): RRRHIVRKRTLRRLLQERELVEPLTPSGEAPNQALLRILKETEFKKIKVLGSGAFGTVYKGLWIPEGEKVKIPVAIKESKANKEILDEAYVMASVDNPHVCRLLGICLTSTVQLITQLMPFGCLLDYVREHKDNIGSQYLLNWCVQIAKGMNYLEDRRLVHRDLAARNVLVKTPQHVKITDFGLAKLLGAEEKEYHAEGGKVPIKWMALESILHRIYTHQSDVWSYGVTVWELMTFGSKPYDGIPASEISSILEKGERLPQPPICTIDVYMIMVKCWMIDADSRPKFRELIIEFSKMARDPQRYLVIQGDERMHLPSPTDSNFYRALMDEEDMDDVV

[16] = target: T16, EGFR(L858R,T790M) (Homo sapiens, UniProt P00533, L858R/T790M)
T16 construct: purchased Eurofins DiscoverX KINOMEscan (scanTK)

[17] = target: T17, YES (Homo sapiens, UniProt P07947)
T17 construct: purchased Eurofins DiscoverX KINOMEscan (scanTK)

[18] = target: T18, INSRR (Homo sapiens, UniProt P14616)
T18 construct: purchased Eurofins DiscoverX KINOMEscan (scanTK)
T18 sequence (P14616 27-1297): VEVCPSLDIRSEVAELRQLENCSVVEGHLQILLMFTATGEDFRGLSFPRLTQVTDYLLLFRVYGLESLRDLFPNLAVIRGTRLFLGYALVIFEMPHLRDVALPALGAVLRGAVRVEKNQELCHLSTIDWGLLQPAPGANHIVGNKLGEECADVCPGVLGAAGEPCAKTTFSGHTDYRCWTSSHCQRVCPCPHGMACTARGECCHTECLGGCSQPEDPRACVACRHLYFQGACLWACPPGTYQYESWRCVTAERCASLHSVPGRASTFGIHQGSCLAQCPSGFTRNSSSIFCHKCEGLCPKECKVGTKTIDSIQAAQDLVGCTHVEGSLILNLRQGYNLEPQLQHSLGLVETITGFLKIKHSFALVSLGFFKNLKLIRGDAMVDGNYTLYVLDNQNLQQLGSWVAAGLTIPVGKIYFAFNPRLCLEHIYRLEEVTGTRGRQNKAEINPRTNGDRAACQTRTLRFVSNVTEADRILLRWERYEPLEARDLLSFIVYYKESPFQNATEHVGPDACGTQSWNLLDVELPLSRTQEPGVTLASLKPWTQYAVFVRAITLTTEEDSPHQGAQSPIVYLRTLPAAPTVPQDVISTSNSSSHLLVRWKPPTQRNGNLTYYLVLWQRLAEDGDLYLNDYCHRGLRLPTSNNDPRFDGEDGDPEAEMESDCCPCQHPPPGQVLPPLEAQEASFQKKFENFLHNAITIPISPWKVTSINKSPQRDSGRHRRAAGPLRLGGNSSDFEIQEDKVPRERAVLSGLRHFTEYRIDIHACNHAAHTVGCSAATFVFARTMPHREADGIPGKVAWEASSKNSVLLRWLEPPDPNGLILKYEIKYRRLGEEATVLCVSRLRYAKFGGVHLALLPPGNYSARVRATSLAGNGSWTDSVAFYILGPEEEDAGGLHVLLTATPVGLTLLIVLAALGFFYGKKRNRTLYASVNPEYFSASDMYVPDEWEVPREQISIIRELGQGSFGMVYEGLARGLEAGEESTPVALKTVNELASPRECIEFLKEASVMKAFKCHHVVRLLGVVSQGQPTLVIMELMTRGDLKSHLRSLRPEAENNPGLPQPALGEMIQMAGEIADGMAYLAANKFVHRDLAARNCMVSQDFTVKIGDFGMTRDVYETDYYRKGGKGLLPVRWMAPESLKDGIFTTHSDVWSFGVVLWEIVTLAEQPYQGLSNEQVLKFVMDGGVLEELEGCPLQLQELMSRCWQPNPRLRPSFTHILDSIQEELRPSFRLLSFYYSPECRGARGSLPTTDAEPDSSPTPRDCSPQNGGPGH

[19] = target: T19, JAK1(JH1domain-catalytic) (Homo sapiens, UniProt P23458)
T19 construct: JAK1(JH1domain-catalytic); purchased Eurofins DiscoverX KINOMEscan (scanTK)
T19 sequence (P23458 875-1154 limits assumed): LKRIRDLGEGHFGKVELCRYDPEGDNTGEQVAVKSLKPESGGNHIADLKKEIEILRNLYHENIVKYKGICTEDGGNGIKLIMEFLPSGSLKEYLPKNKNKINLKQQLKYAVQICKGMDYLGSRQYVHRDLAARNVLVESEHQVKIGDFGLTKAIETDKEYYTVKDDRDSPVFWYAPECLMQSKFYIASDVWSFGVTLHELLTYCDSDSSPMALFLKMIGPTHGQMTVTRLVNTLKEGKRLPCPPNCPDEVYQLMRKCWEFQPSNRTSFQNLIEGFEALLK

In the case of `Cc1cnc(S(C)(=O)=O)nc1N1CCCC(n2nc(-c3ccc(Oc4ccccc4)cc3)c3c(N)ncnc32)C1` (stereo not drawn) [Compound 8a, 1-(1-(5-Methyl-2-(methylsulfonyl)pyrimidin-4-yl)piperidin-3-yl)-3-(4-phenoxyphenyl)-1H-pyrazolo[3,4-d]pyrimidin-4-amine], the difference in %Control vs compound Ib at 1 µM ([1]; @1000nM) is reported as -13%, the remaining binding at 1 µM ([1]; @1000nM, read-out: %Control) is reported as 87% and the remaining binding at 1 µM ([1]; read-out: %Control @1000nM) is reported as 87%. The remaining binding at 1 µM ([2]; @1000nM, read-out: %Control) was 100%, the remaining binding at 1 µM ([2]; read-out: %Control @1000nM) was 100% and the remaining binding at 1 µM ([3]; @1000nM, read-out: %Control) was 74%. For the same molecule, the remaining binding at 1 µM ([3]; read-out: %Control @1000nM) was 74%, the difference in %Control from reference compound Ib at 1 µM ([4]; @1000nM) was 17% and the remaining binding at 1 µM ([4]; @1000nM, read-out: %Control) was 90%. The remaining binding at 1 µM ([4]; read-out: %Control @1000nM) was 90%, the remaining binding at 1 µM ([5]; @1000nM, read-out: %Control) was 27% and the remaining binding at 1 µM ([5]; read-out: %Control @1000nM) was 27%. For the same molecule, the difference in %Control versus compound Ib at 1 µM ([6]; @1000nM) was -1%, the remaining binding at 1 µM ([6]; @1000nM, read-out: %Control) was 99% and the remaining binding at 1 µM ([6]; read-out: %Control @1000nM) was 99%. It also gave a difference in %Control versus compound Ib at 1 µM ([7]; @1000nM, ITK) of 69%, a remaining binding at 1 µM ([7]; @1000nM, ITK, read-out: %Control) of 84% and a remaining binding at 1 µM ([7]; ITK, read-out: %Control @1000nM) of 84%. For the same molecule, the inhibition at 1 µM ([7]; ScanTK, 1 μM) was 16%, the difference in %Control versus compound Ib at 1 µM ([8]; @1000nM) was -7% and the remaining binding at 1 µM ([8]; @1000nM, read-out: %Control) was 84%. It also gave a remaining binding at 1 µM ([8]; read-out: %Control @1000nM) of 84%, a difference in %Control from reference compound Ib at 1 µM ([9]; @1000nM) of 88% and a remaining binding at 1 µM ([9]; @1000nM, read-out: %Control) of 99%. For the same molecule, the remaining binding at 1 µM ([9]; read-out: %Control @1000nM) was 99%, the difference in % of control versus compound Ib at 1 µM ([10]; @1000nM) was -11% and the remaining binding at 1 µM ([10]; @1000nM, read-out: %Control) was 82%. It also gave a remaining binding at 1 µM ([10]; read-out: %Control @1000nM) of 82%, a difference in %Control versus Ib at 1 µM ([11]; @1000nM, read-out: % difference (compound - Ib %Control)) of 12% and a remaining binding at 1 µM ([11]; @1000nM, read-out: %Control) of 44%. The remaining binding at 1 µM ([11]; read-out: %Control @1000nM) was 44%, the remaining binding at 1 µM ([12]; @1000nM, read-out: %Control) was 16% and the remaining binding at 1 µM ([12]; read-out: %Control @1000nM) was 16%. The difference in %Control versus reference compound Ib at 1 µM ([13]; @1000nM, EGFR) was 52.8%, the remaining binding at 1 µM ([13]; @1000nM, EGFR, read-out: %Control) was 53% and the remaining binding at 1 µM ([13]; EGFR, read-out: %Control @1000nM) was 53%. It also gave an inhibition at 1 µM ([13]; ScanTK, 1 μM, WT EGFR) of 47%, a %Control difference versus compound Ib at 1 µM ([14]; @1000nM) of 5% and a remaining binding at 1 µM ([14]; @1000nM, read-out: %Control) of 100%. For the same molecule, the remaining binding at 1 µM ([14]; read-out: %Control @1000nM) was 100%, the difference in %Control versus compound Ib at 1 µM ([15]; @1000nM) was 88.5% and the remaining binding at 1 µM ([15]; @1000nM, read-out: %Control) was 94%. The remaining binding at 1 µM ([15]; read-out: %Control @1000nM) was 94%, the difference in % of control versus compound Ib at 1 µM ([16]; @1000nM) was 81% and the remaining binding at 1 µM ([16]; @1000nM, read-out: %Control) was 91%. For the same molecule, the remaining binding at 1 µM ([16]; read-out: %Control @1000nM) was 91%, the remaining binding at 1 µM ([17]; @1000nM, read-out: %Control) was 8.1% and the remaining binding at 1 µM ([17]; read-out: %Control @1000nM) was 8.1%. For the same molecule, the difference in %Control versus compound Ib at 1 µM ([18]; @1000nM) was -2%, the remaining binding at 1 µM ([18]; @1000nM, read-out: %Control) was 94% and the remaining binding at 1 µM ([18]; read-out: %Control @1000nM) was 94%. The difference in %Control versus compound Ib at 1 µM ([19]; @1000nM) was 0%, the remaining binding at 1 µM ([19]; @1000nM, read-out: %Control) was 94% and the remaining binding at 1 µM ([19]; read-out: %Control @1000nM) was 94%.
